Experimental findings from patent publication US8466162B2, “5-alkynyl-pyridines” (Boehringer Ingelheim International GmbH, priority 2011, dated 2013) are described below.

SMILES strings stand for the structures.

The target of one test is T1, PI3Kalpha (Homo sapiens, UniProt P42336).
T1 construct: His (N); made in house; host or cells: SF9 insect cells (baculovirus co-infection)
The experiment in a line: Inhibition of PI3Kalpha-induced PIP-2 phosphorylation (filter-binding assay, 33P-ATP). Conditions: PI3 Kinase alpha (p85alpha/His-p110alpha), 1 μM ATP; read-out: IC50 PI3Kα. Format: biochemical.

Another test has as its system H460 cells. Put plainly: alamarBlue H460 cell assay (antiproliferative/cytotoxicity). Format: cell-based. Conditions: NCI-H460; H460 human lung carcinoma cells. The gist of the method:
(§1)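 Cells treated 5–6 days at 37 °C with compound, 10 μM top final concentration, 1:3 steps over 10 dilutions, in duplicate. alamarBlue then added for 8 h; fluorescence read at ex 530–560/em 590 nm, medium blank subtracted, EC50 fitted.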

A further test relates to U87 cells. The experiment in a line: alamarBlue U87 cell assay (antiproliferative/cytotoxicity). It is filed as cell-based. To be noted: U-87MG human glioblastoma cells. The essentials:
as §1

A further test relates to MB453 cells. The experiment in a line: alamarBlue MB453 cell assay (antiproliferative/cytotoxicity). Format: cell-based. To be noted: Homo sapiens; MDA MB 453 breast cancer cell line. The essentials: as §1
The test system of another test is MCF7 cells. Put plainly: alamarBlue MCF7 cell assay (antiproliferative/cytotoxicity). It is filed as cell-based. Conditions: MCF7 human breast cancer cell line. The gist of the method:
as §1

Another test concerns BT474 cells. Put plainly: alamarBlue BT474 cell assay (antiproliferative/cytotoxicity). Format: cell-based. Conditions: BT-474 human breast cancer cell line, 5-6 days incubation. The gist of the method:
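Following 5-6 days of treatment across a duplicate 1:3 series (10 μM final maximum), wells received alamarBlue for 8 hours at 37° C before fluorescence measurement; EC50 was fitted. For BT474, 3000 cells were plated in IMDM with 5% FCS.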

T1 sequence (P27986 whole entry): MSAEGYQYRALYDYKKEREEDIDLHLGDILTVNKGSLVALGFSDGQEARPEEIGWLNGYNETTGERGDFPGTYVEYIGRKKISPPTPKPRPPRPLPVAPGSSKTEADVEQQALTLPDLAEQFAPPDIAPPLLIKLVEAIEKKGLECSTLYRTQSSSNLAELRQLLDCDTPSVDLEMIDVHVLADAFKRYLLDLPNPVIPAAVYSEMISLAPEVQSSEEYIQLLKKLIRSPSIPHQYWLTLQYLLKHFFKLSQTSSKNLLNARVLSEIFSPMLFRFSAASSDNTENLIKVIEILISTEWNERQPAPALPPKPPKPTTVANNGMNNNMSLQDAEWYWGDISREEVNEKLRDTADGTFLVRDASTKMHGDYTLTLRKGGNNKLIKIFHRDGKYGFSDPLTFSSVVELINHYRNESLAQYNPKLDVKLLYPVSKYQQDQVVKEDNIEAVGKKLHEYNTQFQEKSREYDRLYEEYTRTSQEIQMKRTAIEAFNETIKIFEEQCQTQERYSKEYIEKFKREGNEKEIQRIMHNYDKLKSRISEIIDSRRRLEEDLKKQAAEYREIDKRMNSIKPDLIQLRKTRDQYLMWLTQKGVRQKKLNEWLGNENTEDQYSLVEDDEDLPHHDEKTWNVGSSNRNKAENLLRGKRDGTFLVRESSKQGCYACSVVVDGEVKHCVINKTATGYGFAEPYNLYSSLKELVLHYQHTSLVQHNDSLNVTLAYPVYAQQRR
T1 sequence (P42336 whole entry): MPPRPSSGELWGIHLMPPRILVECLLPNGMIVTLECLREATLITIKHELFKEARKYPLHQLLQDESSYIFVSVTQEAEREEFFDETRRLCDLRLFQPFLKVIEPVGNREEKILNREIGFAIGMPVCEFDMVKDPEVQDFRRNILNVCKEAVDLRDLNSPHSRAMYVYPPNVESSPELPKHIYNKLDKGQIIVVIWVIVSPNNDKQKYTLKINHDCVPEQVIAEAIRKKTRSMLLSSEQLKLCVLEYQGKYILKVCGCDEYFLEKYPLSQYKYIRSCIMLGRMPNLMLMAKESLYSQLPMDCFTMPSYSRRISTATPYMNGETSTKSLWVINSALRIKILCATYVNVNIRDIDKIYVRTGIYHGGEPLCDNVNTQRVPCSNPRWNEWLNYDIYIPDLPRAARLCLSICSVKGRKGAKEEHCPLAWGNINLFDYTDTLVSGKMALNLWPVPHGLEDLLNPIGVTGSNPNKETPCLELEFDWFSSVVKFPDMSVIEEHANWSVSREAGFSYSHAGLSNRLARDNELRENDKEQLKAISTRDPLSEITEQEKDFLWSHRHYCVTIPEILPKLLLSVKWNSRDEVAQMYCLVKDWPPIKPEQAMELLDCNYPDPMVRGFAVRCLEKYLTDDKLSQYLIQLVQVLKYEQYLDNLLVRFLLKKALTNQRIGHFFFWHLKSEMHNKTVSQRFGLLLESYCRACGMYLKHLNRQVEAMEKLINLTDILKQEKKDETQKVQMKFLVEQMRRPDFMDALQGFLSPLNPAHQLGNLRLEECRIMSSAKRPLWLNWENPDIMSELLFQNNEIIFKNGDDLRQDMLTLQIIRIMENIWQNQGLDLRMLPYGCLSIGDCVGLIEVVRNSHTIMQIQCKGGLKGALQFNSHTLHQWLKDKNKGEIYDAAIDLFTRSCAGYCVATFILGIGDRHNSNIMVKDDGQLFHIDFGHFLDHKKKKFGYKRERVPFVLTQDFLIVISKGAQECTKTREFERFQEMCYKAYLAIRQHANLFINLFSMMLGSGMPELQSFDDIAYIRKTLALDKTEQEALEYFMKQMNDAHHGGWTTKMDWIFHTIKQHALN

Consider `Cc1ncc(C#Cc2c(C)ncnc2-c2cccc(C#N)c2)cc1NS(C)(=O)=O` [Example 39, N-{5-[4-(3-Cyano-phenyl)-6-methyl-pyrimidin-5-ylethynyl]-2-methyl-pyridin-3-yl}-methanesulfonamide], for which, on PI3Kalpha, the IC50 worked out at 4 nM. The EC50 in the test on H460 cells amounted to 1550 nM; in the test with U87 cells it was 955 nM; with MB453 cells it was 524 nM; in the test with MCF7 cells it was 213 nM; with BT474 cells, 837 nM.
Take `CCc1ncnc(-c2ccc(C(=O)N(C)C)cc2F)c1C#Cc1cnc(C)c(NS(C)(=O)=O)c1` [Example 72, 4-[6-Ethyl-5-(5-methanesulfonylamino-6-methyl-pyridin-3-ylethynyl)-pyrimidin-4-yl]-3-fluoro-N,N-dimethyl-benzamide]: at PI3Kalpha, the IC50 was 8 nM. The 50% effective concentration (EC50) in the test with H460 cells turned out to be 3030 nM; in the test on U87 cells, 1580 nM; with MB453 cells, 746 nM; in the test with MCF7 cells, 679 nM; in the test with BT474 cells, 1950 nM.
